According to PMC5834492, “Antimycobacterial drug discovery using Mycobacteria-infected amoebae identifies anti-infectives and new molecular targets” (Scientific Reports, 2018):

Key:
Mtb H37Rv in THP-1 = tested on: Mtb H37Rv in THP-1; set-up: method as in Sorrentino et al, 2015; settings: ref Sorrentino et al, 2015, cited from earlier work; for Intracelullar MIC90 in THP-1: THP1 / Mtb H37Rv infection assay; for Extracellular MIC90/ Inracellular MIC90: ratio
M. marinum luxCDABE = format: cell-based, Mycobacterium marinum
[1] = tested on: M. marinum in A. castellanii; format: cell-based, Mycobacterium marinum
[2] = tested on: M. marinum in BV2 microglial cells; format: cell-based, Mycobacterium marinum
Mtb H37Rv = tested on: Mtb H37Rv; set-up: method as in Sorrentino et al, 2015; settings: ref Sorrentino et al, 2015; cited from earlier work

Row | SMILES | Intracelullar MIC90 in THP-1 (Mtb H37Rv in THP-1) [µM] | Extracellular MIC90/ Inracellular MIC90 (Mtb H37Rv in THP-1) | Antibiotic assays: M. marinum luxCDABE (M. marinum luxCDABE) | Intracellular infection assays: A. castellanii / M. marinum [1] | Intracellular infection assays: BV2 / M. marinum [2] | Growth inhibition / Cytotoxicity assays: D. discoideum GFP-ABD (D. discoideum GFP-ABD) | Growth inhibition / Cytotoxicity assays: BV2 cells (BV2 cells) | Extracellular MIC90 (Mtb H37Rv) [µM]
1 | c1ccc(-c2csc(Nc3nc4cc5c(cc4s3)OCO5)n2)nc1 [GSK735826A] | 1.85 | 1.46 | 0.00 | 0.98 | 1.47 | 0.86 | False | 2.7
2 | O=C(C=Cc1ccccc1)N1CCN(Cc2ccc3c(c2)OCO3)CC1 [SB-516933] | 5.55 | 0.67 | 0.41 | 1.12 | 1.10 | 0.97 | False | 3.7
3 | COc1ccc(-c2ccc(Nc3cccc(S(=O)(=O)CCNCCc4cccs4)c3)nc2)cn1 [GSK1826089A] | 1.85 | 4.11 | 0.085 | 1.17 | 1.09 | 0.69 | False | 7.6
4 | CCc1ccc(CN2CCC3(CC2)OCCc2sccc23)s1 [GSK2200160A] | 0.21 | 4.76 | 0.35 | 0.77 | 1.09 | 0.03 | False | 1
5 | Fc1ccccc1-c1noc(N2CCN(Cc3ccc4c(c3)OCO4)CC2)n1 [GSK1434490A] | 5.55 | 0.94 | 0.68 | 1.24 | 1.16 | 0.93 | False | 5.2
6 | Cc1nn(Cc2ccccc2)c(Cl)c1C(=O)NC1CCCCCC1 [GSK636544A] | 1.85 | 2.81 | 0.00 | 1.07 | 1.35 | 0.93 | False | 5.2
7 | Cc1ccc(SCCNC(=O)c2c(-c3ccccc3)noc2C)cc1 [GSK1863309A] | 16.65 | 0.47 | 0.00 | 1.09 | 1.12 | 0.97 | False | 7.8
8 | O=C(C1CCN(c2nnc(-n3cccc3)s2)CC1)N1CCC(Cc2ccccc2)CC1 [GSK2032710A] | 0.61 | 6.88 | 0.00 | 1.06 | 1.25 | 1.04 | False | 4.2
9 | O=C(Nc1nc(-c2ccccn2)cs1)c1cncn1-c1ccccc1 [GSK1691553A] | 50 | 0.16 | 0.07 | 1.03 | 1.01 | 0.80 | False | 7.9
10 | COc1cc(Nc2ccccc2)ccc1NS(=O)(=O)c1c(C)noc1C [GSK270670A] | 50 | 0.12 | 1.00 | 1.11 | 1.42 | 0.94 | False | 6.1
11 | CCc1ccc(C2CC(C(F)(F)F)n3ncc(C(=O)NCc4cccs4)c3N2)cc1 (stereo not drawn) [GSK1589671A] | 0.21 | 20.95 | 0.16 | 1.63 | 1.74 | 0.99 | False | 4.4
12 | COc1cc(Cc2cnc(N)nc2N)c2cnccc2c1N(C)C [GW360240X] | 50 | 0.06 | 0.74 | 1.10 | 1.06 | 1.13 | False | 3
13 | FC(F)(F)c1cc(SCc2ccccc2)nc(-c2ccccn2)n1 [GSK847913A] | 1.85 | 1.78 | 0.00 | 0.90 | 1.39 | 0.94 | False | 3.3
14 | c1ccc(CCNc2cc(-c3ccccc3)nc3nncn23)cc1 [GSK1402290A] | 5.55 | 0.99 | 0.14 | 1.08 | 1.11 | 0.84 | False | 5.5
15 | Cc1cc(OCC(=O)NCc2ccccc2)c2cc(Br)ccc2n1 [GSK124576A] | 5.55 | 0.41 | 0.00 | 1.13 | 1.05 | 0.91 | False | 2.3
16 | Cc1ccc(C2CC(C(F)(F)F)n3ncc(C(=O)NCc4ccc5c(c4)OCO5)c3N2)cc1 (stereo not drawn) [GSK937733A] | 0.61 | 8.85 | 1.00 | 1.38 | 1.64 | 0.94 | False | 5.4
17 | O=C(N[C@@H](Cc1ccccc1)C(=O)Nc1ccccc1N1CCOCC1)c1cccs1 [GSK1729177A] | 50 | 0.13 | 0.00 | 0.64 | 1.02 | 1.04 | True | 6.6
18 | COc1ccc2nc(C)cc(OCC(=O)NCc3ccccc3)c2c1 [GSK463114A] | 5.55 | 0.2 | 0.00 | 1.10 | 1.37 | 0.95 | False | 1.1
19 | Fc1ccc2nc(Nc3nc(-c4ccccn4)cs3)sc2c1 [GSK735816A] | 1.85 | 1.24 | 0.00 | 1.17 | 1.37 | 0.37 | False | 2.3
20 | CCc1ccc(C2CC(C(F)(F)F)n3ncc(C(=O)NCc4ccc(OC)cc4)c3N2)cc1 (stereo not drawn) [GSK1589673A] | 0.61 | 8.03 | 1.00 | 1.34 | 1.29 | 1.16 | False | 4.9
21 | COc1ccc2nc(C)cc(OCC(=O)Nc3ccccc3OC)c2c1 [GSK358607A] | 1.85 | 0.22 | 0.00 | 0.55 | 0.98 | 0.39 | False | 0.4
